Article PMC3580847 (Biochemistry, 2013)

Key:
Type in all cases: cell-based, Human
M4A4 cells = assay: Proliferation assay; details: 2 h treatment in DMEM pH 6.0 or 7.4, MTS at 48 h
U2OS cells = assay: Proliferation assay; details: 2 h treatment in DMEM pH 6.0 or 7.4, MTS at 48 h
MDA-MB-231 cells = assay: Proliferation assay; details: 2 h treatment in DMEM pH 6.0 or 7.4, MTS at 48 h
HeLa cells = test system: HeLa cells

SMILES | inhibition of cell proliferation / toxicity (M4A4 cells) | inhibition of cell proliferation / toxicity (M4A4 cells; listed as Amanitin) | inhibition of cell proliferation / toxicity (U2OS cells) | inhibition of cell proliferation / toxicity (U2OS cells; listed as Amanitin) | inhibition of cell proliferation / toxicity (MDA-MB-231 cells) | inhibition of cell proliferation / toxicity (MDA-MB-231 cells; listed as Amanitin) | plasma membrane staining with AnnexinV-FITC (HeLa cells)
CC[C@H](C)[C@@H]1NC(=O)CNC(=O)[C@@H]2Cc3c([nH]c4cc(O)ccc34)[S@+]([O-])C[C@H](NC(=O)CNC1=O)C(=O)N[C@@H](CC(N)=O)C(=O)N1C[C@H](O)C[C@H]1C(=O)N[C@@H]([C@@H](C)[C@@H](O)CO)C(=O)N2 [amanitin, α-Amanitin] | no toxicity was observed | no effect on proliferation | no toxicity was observed | no effect on proliferation | no toxicity was observed | no effect on proliferation | –
CN[C@@H]1C[C@H]2O[C@@](C)([C@@H]1OC)n1c3ccccc3c3c4c(c5c6ccccc6n2c5c31)C(=O)NC4 [staurosporine] | – | – | – | – | – | – | stained with AnnexinV-FITC
